Values quoted from earlier work as cited in US20250009687A1, “COMPOSITIONS AND METHODS USING A COMBINATION OF NUTRIENTS TO SUPPORT COGNITION AND EMOTIONAL HEALTH IN A MAMMAL” (SOCIETE DES PRODUITS NESTLE S.A., priority 2021, published 2025).

Test system: TFEB
Settings: Fu X. et al., Experimental Neurology 2021

## C[C@@H]1O[C@@H](O[C@H]2[C@H](O[C@H]3C[C@]4(C)[C@H](C[C@@H](O)[C@@H]5[C@@H]([C@]6(C)CC[C@H](C(C)(C)O)O6)CC[C@]54C)[C@@]4(C)CC[C@H](O)C(C)(C)[C@H]34)O[C@H](CO)[C@@H](O)[C@@H]2O)[C@H](O)[C@H](O)[C@H]1O [PF11]
  neuroprotection: neuroprotective
Acting through TFEB
  Lamp1 and Ctsd mRNA: increase
